Results taken from publication PMC12677843, “Multidisciplinary Preclinical Investigations on Ferrocenyl, Ruthenocenyl, and Benzyl Derivatives of Niridazole as New Drug Candidates against Schistosomiasis” (Chemmedchem, 2025).
Read-outs that look alike come from different tables or passages of the source.

Experiments:
[1] = tested on: juvenile S. mansoni; experiment: In vitro drug sensitivity assay on juvenile S. mansoni; type: cell-based, Schistosoma mansoni; conditions: 72 h incubation, 37 °C, 5% CO2
Method: Juvenile worms were gained through cultivation of NTS as previously described. 10 In short, NTS were obtained as described above, then directly after the mechanical transformation process the newly transformed schistosomula were placed in a special culturing medium. The culture medium consists of Panserin 401, w: L-Glutamine, serum free all-round medium (Pan Biotech, Aidenbach, Germany) supplemented with 20 % human serum and 500 U/mL penicillin, […] streptomycin (LuBioScience, Switzerland). 96-well transparent polystyrene flat bottom plates were used for the in vitro growth procedure, with 40 to 60 NTS per well in 100 µL culture medium. The bordering wells of the plate were filled solely with medium to counteract evaporation and to keep the humidity as steady as possible. The plates were incubated for 21 days at 5 % CO2 and at 37 °C, with regular medium changes every 3 to 4 days. After the 21 days culturing period, the schistosomulae developed into juveniles. For the drug sensitivity assay, juvenile worms were incubated over 72 h (5 % CO 2 and 37 °C) with the test compound in the same medium, as used for the culturing process. In a 96-well plate, 250 µL medium containing the test compound and six juvenile worms, ideally of both sexes were placed in each well. All compounds were tested twice independently at 50, 10, 5 and 1 µM in duplicates. The viability of the worms was evaluated microscopically after 24, 48 and 72 h of continuous drug exposure using the same phenotypic screening method as described before. […]

[2] = tested on: S. mansoni newly transformed schistosomula (NTS); experiment: In vitro evaluation on newly transformed schistosomula (NTS); type: cell-based, Schistosoma mansoni; conditions: for EC50: 72 h incubation, 37 °C, 5% CO2; for drug effect at 50 µM on S. mansoni NTS: highest tested concentration 50 µM
Method: 2. Experimental section for biological experiments
Stock solutions of the test compounds
Stock solution of a concentration of 10 mM in pure DMSO (Sigma-Aldrich, Switzerland) were prepared of the 12 compounds, these stock solutions were used for all in vitro evaluations from activity tests in S. mansoni to the cytotoxic determinations in HUH7 hepatocyte-derived carcinoma cells, and in SH-SY5Y neuroblastoma cells.
The solutions were thoroughly vortexed and sonicated to enable a good dissolution of the compounds and homogenous stock solutions.
2.1 In vitro evaluations in S. mansoni
In vitro evaluation on newly transformed schistosomula (NTS)
To obtain newly transformed schistosomula (NTS) the lifecycle of S. mansoni (strain originates from West Africa, Liberia) is maintained at the Swiss Tropical and Public Health Institute (Swiss TPH). As previously described, cercariae are collected from infected Biomphalaria glabrata snails and then mechanically transformed into NTS. 8 After HBSS (Gibco, Waltham MA, USA) washing to get rid of the detached tails, the NTS were kept overnight (min. 12 h, max. 24 h) in culture medium at 37 °C and 5 % CO2 to complete their transformation process, before the drug sensitivity assay was started. The drug assays were performed in the same culture medium consisting of medium M199 (Gibco, Waltham MA, USA) supplemented with 5 % v/v inactivated fetal calf serum (iFCS; Bioconcept AG, Allschwil, Switzerland), 1% antibiotics mixture developed by Mäser et al., 9 and 1 % penicillin 10,000 U/mL, and streptomycin 10 mg/mL solution (Sigma-Aldrich, Buchs, Switzerland). The assay was performed in a 96-well plate, with 30−40 NTS per well in a final volume of 250 μL. NTS incubated in culture medium containing 0.5 % DMSO but no drug served as negative controls.
Microscopic evaluation was performed after 24, 48 and 72 h of incubation of the parasites at 37 °C and 5 % CO 2. Their overall viability was scored from 0 (death) to 3 (full viability) by a phenotypic screening method based on their motility, morphology, […]
and granularity. […]

[3] = tested on: adult S. mansoni; experiment: In vitro drug sensitivity assay on adult S. mansoni (microscopic viability scoring); type: cell-based, Schistosoma mansoni; conditions: for mean drug effect at 10 µM on adult S. mansoni, 24 h / mean drug effect at 10 µM on adult S. mansoni, 48 h / mean drug effect at 10 µM on adult S. mansoni, 72 h: in percentage of DMSO control; for EC50: 37 °C, 5% CO2; for Fold activity of niridazole: potency on adult S. mansoni relative to niridazole, EC50 at 72 h; for drug effect at 50 µM on adult S. mansoni: 72 h incubation, normalized to DMSO control, active if ≥60%
Method: Figure 3 In vitro activity at 50 µM of the 12 compounds on adult S. mansoni. Adult schistosomes were incubated in culture media for 72 h at 37 °C and 5% CO2 with either compound (50 µM) or a DMSO (0.5%) control. The viability of the worms was microscopically evaluated and scored (0—3, in 0.5 steps) every 24 h. Results are from two independent experiments, each performed in duplicate. Drug activities were normalized to the DMSO controls. Data represent mean ± SD in percentage of DMSO control. […]
In vitro evaluation on adult S. mansoni
After a week for acclimatization to the new environment with controlled conditions (temperature: 22 °C ± 2 °C, humidity: 50 % ± 10 %, 12:12 h light/dark photocycle), four-week-old female NMRI mice (Charles River, Sulzfeld, Germany) were subcutaneously infected with approximately 100 cercariae to establish the S. mansoni infection. In the S. mansoni infected mice the worms were allowed to develop for 7 weeks into the adult stage, before they were extracted from the mesenteric veins of the euthanized mice. The adult worms were placed into RPMI 1640 (Gibco, Waltham MA, USA) medium supplemented with 1 % penicillin/streptomycin mixture and 5 % iFCS at 37 °C and 5 % CO 2. The drug sensitivity assay was set up in a 24-well plate with two wells containing each two pairs of S. mansoni worms per compound and concentration.
The final volume per well was 2 mL, containing the culture medium and the corresponding amount of drug dissolved in DMSO. The maximum concentration tested was 50 µM, corresponding to 0.5 % DMSO, to which all the other wells were adapted […]
to, so that all test concentrations contained always the same amount of DMSO.
Additionally, 2 wells with negative controls containing only DMSO and the culture medium were included. After an incubation period of 72 h at 37 °C and 5 % CO 2, the worms were microscopically evaluated. The drug effect was determined 24, 48 and 72 h post-exposure based on the phenotype of the adult worms, using a viability scale ranging from three referring to viable, motile worms with no change in their tegument to zero standing for the death of the worms.
All described in vitro studies with mice involved, were conducted at the Swiss Tropical and Public Health Institute, first in Basel, later in Allschwil, and had the approval by the corresponding veterinary authorities of the Canton Basel-Stadt (permit no. 2070)

[4] = Stability in DMSO-d6 monitored by 1H NMR; type: physicochemical; conditions: room temperature, 0, 6, 24, 30 and 48 h
Method: Stability is a key factor that needs to be investigated in medicinal chemistry, particularly with metal complexes.^[ [44] ^] We randomly chose four niridazole derivatives that we dissolved in DMSO‐d 6 (A3, B1, C2, and D1). We then monitored by ^1H NMR spectroscopy any change in the spectra after 0, 6, 24, 30, and 48 h at room temperature. No shifted peaks or new peaks were found for all the tested compounds over 2 days, showing that they are stable in DMSO‐d 6. The NMR spectra of these studies can be found in the Supporting Information (Figure S32–S35).
Figure S31 DEPT spectrum of C2
1H NMR spectra for stability
Preparation of the control samples for 1H NMR analysis: Compounds B1, D1, A3 and
C2 were dissolved in DMSO- d6. Compound A2 was dissolved in DMSO- d6 with D2O
(4:1, v/v). NMR spectra were recorded in deuterated solvents on Bruker Avance-400
in the room temperature for 0, 6, 24, 30 and 48 hours or 0, 3, 6 and 24 hours. […]

[5] = 24 h drug exposure, read-out: EC50 on adult S. mansoni, 24 h
[6] = 48 h drug exposure, read-out: EC50 on adult S. mansoni, 48 h
[7] = 72 h drug exposure, read-out: EC50 on adult S. mansoni, 72 h
[8] = Schistosoma mansoni, 72 h, 72 h drug exposure, read-out: EC50 on adult S. mansoni, 72 h

| SMILES | EC50 [1] | EC50 [2] | mean drug effect at 10 µM on adult S. mansoni, 24 h ([3]; 24 h) | mean drug effect at 10 µM on adult S. mansoni, 48 h ([3]; 48 h) | EC50 [3, 5] | EC50 [3, 6] | EC50 [3, 7] | Fold activity of niridazole [3] | EC50 ([2]; Schistosoma mansoni) | drug effect at 50 µM on S. mansoni NTS [2] | drug effect at 50 µM on adult S. mansoni [3] | EC50 [3, 8] | stability in DMSO-d6 (1H NMR) [4] | mean drug effect at 10 µM on adult S. mansoni, 72 h ([3]; 72 h) | EC50 ([1]; Schistosoma mansoni) | EC50 ([3]; Schistosoma mansoni, 24 h, 24 h drug exposure, read-out: EC50 on adult S. mansoni, 24 h) | EC50 ([3]; Schistosoma mansoni, 48 h, 48 h drug exposure, read-out: EC50 on adult S. mansoni, 48 h) |
| --- | --- | --- | --- | --- | --- | --- | --- | --- | --- | --- | --- | --- | --- | --- | --- | --- | --- |
| C=CC([c-]1cccc1)N1CCN(c2ncc([N+](=O)[O-])s2)C1=O.[Fe+2].c1cc[cH-]c1 (racemic) [Compound A5] | 12.2 µM | > 50 µM | 36.19% | 57.59% | > 50 µM | 5.3 µM | 1.5 µM | 3.8 |  |  |  |  |  |  |  |  |  |
| Nc1ncc([N+](=O)[O-])s1 [Compound 2] |  |  |  |  |  |  |  |  | > 50 µM | No drug effect | No drug effect | > 50 µM |  |  |  |  |  |
| O=C1N(C[c-]2cccc2)CCN1c1ncc([N+](=O)[O-])s1.[Fe+2].c1cc[cH-]c1 [Compound A3] | 5.7 µM | > 50 µM | 30.75% | 44.28% | 50.5 µM | 9.7 µM | 3.5 µM | 1.6 |  |  | less active than niridazole |  | stable | 66.09% |  |  |  |
| O=C1N(CCCCCC[c-]2cccc2)CCN1c1ncc([N+](=O)[O-])s1.[Fe+2].c1cc[cH-]c1 [Compound A4] |  | > 50 µM |  |  |  |  | > 50 µM |  |  | No drug effect | No drug effect |  |  |  |  |  |  |
| O=C(Nc1ncc([N+](=O)[O-])s1)[c-]1cccc1.[Ru+2].c1cc[cH-]c1 [Compound B1] | > 50 µM | > 50 µM | 45.53% | 44.35% |  |  | 6.9 µM |  |  |  | less active than niridazole |  | stable | 57.20% |  |  |  |
| O=C1N(C[c-]2cccc2)CCN1c1ncc([N+](=O)[O-])s1.[Ru+2].c1cc[cH-]c1 [Compound B2] | 8 µM | > 50 µM | 31.28% | 44.99% | 38.1 µM |  | 3.2 µM | 1.8 |  |  | less active than niridazole |  |  | 65.57% |  |  |  |
| O=C1N(Cc2ccccc2)CCN1c1ncc([N+](=O)[O-])s1 [Compound C2] |  |  |  |  |  |  |  |  | > 50 µM | No drug effect | No drug effect | > 50 µM | stable |  |  |  |  |
| O=C(Nc1ncc([N+](=O)[O-])s1)C12CC3CC(CC(C3)C1)C2 [Compound D1] |  |  | 55.18% | 66.75% | 9.8 µM |  |  | 1.5 | 7.9 µM |  |  | 3.7 µM | stable | 65.76% | 29.2 µM | < 10 µM | 4.2 µM |
